Each block holds one compound with its values, some of them ahead of it.
Assays:
[1] = target: T1, Histone deacetylase 1 (Homo sapiens, UniProt Q13547); experiment: Inhibition of recombinant human His-tagged HDAC1 (482 residues) expressed in baculovirus infected insect cells using Boc Lys(Ac)-AMC as substrate preincubated for 5 mins followed by substrate addition and measured after 30 mins by fluorescence assay
[2] = target: T2, Protein deacetylase HDAC6 (Homo sapiens, UniProt Q9UBN7); experiment: Inhibition of recombinant human His-tagged HDAC6 expressed in baculovirus infected insect cells using Boc Lys(Ac)-AMC as substrate preincubated for 5 mins followed by substrate addition and measured after 30 mins by fluorescence assay
T2 sequence (Q9UBN7 whole entry): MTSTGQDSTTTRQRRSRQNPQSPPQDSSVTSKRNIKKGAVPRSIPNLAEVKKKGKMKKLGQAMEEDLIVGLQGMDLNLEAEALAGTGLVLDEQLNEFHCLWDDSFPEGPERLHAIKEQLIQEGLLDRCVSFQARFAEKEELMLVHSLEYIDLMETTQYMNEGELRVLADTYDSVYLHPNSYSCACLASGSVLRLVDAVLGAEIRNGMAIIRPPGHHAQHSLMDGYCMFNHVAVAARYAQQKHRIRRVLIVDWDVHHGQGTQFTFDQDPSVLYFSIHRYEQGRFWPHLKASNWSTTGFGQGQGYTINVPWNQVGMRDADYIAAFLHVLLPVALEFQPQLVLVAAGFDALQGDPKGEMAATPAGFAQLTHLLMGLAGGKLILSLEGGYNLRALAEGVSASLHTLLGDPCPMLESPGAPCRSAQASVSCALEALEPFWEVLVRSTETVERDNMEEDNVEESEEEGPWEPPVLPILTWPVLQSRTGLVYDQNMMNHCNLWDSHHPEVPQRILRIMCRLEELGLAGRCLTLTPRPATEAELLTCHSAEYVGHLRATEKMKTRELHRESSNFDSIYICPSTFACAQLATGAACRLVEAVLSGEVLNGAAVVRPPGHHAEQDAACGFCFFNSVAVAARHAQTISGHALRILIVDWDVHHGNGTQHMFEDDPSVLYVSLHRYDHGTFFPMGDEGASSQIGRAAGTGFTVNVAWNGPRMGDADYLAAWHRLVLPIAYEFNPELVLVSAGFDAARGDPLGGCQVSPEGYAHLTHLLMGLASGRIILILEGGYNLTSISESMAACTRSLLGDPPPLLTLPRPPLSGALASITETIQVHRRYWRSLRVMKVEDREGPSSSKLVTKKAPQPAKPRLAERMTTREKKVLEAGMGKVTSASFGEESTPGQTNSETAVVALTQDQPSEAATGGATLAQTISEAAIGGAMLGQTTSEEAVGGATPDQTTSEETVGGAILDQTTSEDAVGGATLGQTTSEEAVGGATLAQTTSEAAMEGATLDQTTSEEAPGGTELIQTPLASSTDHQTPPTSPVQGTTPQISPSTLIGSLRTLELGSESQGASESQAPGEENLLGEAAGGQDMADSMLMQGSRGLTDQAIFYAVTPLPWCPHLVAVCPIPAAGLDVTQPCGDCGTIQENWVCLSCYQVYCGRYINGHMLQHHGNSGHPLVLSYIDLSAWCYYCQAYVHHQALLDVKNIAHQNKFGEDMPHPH

[3] = target: T1, Histone deacetylase 1; experiment: Inhibition of recombinant human GST-tagged HDAC1 expressed in baculovirus infected Sf9 insect cells Fluor-de-lys as substrate measured after 2 hrs by fluorescence assay
[4] = target: Histone deacetylase (Homo sapiens) (UniProt Q13547+O15379+Q9UBN7+Q92769+Q9UQL6+Q8WUI4+Q9BY41+Q96DB2+P56524+Q9UKV0+Q969S8); experiment: Inhibition of HDAC in human K562 cells assessed as increase in histone acetylation levels at 500 nM after 3 hrs by FACS analysis relative to SAHA; assay type: cell-based
[5] = system: HCT-116; experiment: cells; assay type: functional, cell-based; settings: Homo sapiens, HCT-116, 72 h
[6] = system: A549; experiment: cells; assay type: functional, cell-based; settings: Homo sapiens, A549, 72 h
[7] = system: K562; experiment: cells; assay type: functional, cell-based; settings: Homo sapiens, K562, 72 h
[8] = target: T3, Protein deacetylase HDAC6 (Mus musculus, UniProt Q9Z2V5); experiment: Inhibition of recombinant mouse HDAC6 expressed in HEK293T cells using Ac-KGLGK(Ac)-MCA as substrate measured after 30 mins by fluorescence assay
T3 sequence (Q9Z2V5 whole entry): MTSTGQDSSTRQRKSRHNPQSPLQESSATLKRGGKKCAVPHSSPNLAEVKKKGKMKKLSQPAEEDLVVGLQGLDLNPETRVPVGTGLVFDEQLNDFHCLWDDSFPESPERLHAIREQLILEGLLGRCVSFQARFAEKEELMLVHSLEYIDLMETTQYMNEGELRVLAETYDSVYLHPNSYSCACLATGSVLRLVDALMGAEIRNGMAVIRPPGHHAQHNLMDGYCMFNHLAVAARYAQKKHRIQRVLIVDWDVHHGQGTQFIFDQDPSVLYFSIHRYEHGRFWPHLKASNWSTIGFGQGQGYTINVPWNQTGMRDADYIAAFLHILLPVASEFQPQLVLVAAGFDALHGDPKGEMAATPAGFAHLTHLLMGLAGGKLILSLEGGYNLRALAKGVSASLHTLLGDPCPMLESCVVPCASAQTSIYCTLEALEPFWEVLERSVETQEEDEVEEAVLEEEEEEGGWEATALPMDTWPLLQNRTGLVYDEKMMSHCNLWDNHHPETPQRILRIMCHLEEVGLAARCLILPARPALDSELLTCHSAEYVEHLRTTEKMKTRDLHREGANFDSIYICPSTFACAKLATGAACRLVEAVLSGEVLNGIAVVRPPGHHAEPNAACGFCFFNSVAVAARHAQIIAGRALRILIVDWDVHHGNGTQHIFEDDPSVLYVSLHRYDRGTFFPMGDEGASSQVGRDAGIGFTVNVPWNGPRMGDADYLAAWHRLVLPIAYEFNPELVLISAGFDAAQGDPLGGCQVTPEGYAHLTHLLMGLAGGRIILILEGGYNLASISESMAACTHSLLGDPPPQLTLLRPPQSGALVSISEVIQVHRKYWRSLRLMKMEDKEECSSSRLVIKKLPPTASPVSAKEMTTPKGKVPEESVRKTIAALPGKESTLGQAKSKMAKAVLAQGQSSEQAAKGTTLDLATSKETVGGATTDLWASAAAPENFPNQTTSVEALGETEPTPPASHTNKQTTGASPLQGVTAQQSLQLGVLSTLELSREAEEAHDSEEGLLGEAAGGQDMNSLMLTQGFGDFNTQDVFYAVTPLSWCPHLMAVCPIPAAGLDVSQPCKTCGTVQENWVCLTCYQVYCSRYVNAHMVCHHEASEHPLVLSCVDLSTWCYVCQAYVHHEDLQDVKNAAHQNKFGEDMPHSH

[9] = target: T2, Protein deacetylase HDAC6; experiment: Inhibition of HDAC6 (unknown origin)
[10] = target: T1, Histone deacetylase 1; experiment: Inhibition of HDAC1 (unknown origin)
[11] = target: T4, Histone deacetylase 4 (Homo sapiens, UniProt P56524); experiment: Inhibition of HDAC4 (unknown origin)
[12] = target: Histone deacetylase; assay type: cell-based, Homo sapiens; settings: hela
[13] = target: T1, Histone deacetylase 1; experiment: Inhibition of recombinant human HDAC1 expressed in HEK293T cells using Ac-KGLGK(Ac)-MCA as substrate measured after 30 mins by fluorescence assay
[14] = target: T4, Histone deacetylase 4; experiment: Inhibition of recombinant human HDAC4 expressed in HEK293T cells using Ac-KGLGK(Ac)-MCA as substrate measured after 30 mins by fluorescence assay
[15] = target: Histone deacetylase (HDAC1 and HDAC2) (Homo sapiens, UniProt Q13547+Q92769); assay type: cell-based; settings: hela
[16] = target: Histone deacetylase 3 (Homo sapiens, UniProt O15379); experiment: Inhibition of HDAC3 (unknown origin)
Sequence of Histone deacetylase 3 (O15379 whole entry): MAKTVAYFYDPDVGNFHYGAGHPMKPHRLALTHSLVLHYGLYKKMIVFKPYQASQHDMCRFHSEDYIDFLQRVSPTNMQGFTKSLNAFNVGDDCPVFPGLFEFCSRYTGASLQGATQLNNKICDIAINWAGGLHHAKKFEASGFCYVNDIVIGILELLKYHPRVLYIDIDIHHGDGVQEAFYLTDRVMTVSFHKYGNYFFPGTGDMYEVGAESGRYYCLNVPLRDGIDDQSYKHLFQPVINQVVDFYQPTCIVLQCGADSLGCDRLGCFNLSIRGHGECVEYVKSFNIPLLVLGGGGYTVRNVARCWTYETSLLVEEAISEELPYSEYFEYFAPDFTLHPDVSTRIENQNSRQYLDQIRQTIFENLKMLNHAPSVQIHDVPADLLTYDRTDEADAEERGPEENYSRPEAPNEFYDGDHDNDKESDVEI

T1 sequence (Q13547 whole entry): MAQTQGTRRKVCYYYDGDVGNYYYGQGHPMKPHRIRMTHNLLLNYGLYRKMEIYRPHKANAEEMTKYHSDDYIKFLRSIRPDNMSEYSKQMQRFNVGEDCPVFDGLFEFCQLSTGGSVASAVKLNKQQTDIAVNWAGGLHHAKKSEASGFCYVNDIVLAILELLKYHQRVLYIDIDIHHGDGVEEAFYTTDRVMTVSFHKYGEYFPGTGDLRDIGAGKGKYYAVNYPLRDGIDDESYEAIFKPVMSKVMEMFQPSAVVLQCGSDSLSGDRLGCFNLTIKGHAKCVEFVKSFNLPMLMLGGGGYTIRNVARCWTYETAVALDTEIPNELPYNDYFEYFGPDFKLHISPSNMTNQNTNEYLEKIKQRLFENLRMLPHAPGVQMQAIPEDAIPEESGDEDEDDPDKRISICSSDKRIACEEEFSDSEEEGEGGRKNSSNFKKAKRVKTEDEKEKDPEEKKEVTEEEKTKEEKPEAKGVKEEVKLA
T4 sequence (P56524 whole entry): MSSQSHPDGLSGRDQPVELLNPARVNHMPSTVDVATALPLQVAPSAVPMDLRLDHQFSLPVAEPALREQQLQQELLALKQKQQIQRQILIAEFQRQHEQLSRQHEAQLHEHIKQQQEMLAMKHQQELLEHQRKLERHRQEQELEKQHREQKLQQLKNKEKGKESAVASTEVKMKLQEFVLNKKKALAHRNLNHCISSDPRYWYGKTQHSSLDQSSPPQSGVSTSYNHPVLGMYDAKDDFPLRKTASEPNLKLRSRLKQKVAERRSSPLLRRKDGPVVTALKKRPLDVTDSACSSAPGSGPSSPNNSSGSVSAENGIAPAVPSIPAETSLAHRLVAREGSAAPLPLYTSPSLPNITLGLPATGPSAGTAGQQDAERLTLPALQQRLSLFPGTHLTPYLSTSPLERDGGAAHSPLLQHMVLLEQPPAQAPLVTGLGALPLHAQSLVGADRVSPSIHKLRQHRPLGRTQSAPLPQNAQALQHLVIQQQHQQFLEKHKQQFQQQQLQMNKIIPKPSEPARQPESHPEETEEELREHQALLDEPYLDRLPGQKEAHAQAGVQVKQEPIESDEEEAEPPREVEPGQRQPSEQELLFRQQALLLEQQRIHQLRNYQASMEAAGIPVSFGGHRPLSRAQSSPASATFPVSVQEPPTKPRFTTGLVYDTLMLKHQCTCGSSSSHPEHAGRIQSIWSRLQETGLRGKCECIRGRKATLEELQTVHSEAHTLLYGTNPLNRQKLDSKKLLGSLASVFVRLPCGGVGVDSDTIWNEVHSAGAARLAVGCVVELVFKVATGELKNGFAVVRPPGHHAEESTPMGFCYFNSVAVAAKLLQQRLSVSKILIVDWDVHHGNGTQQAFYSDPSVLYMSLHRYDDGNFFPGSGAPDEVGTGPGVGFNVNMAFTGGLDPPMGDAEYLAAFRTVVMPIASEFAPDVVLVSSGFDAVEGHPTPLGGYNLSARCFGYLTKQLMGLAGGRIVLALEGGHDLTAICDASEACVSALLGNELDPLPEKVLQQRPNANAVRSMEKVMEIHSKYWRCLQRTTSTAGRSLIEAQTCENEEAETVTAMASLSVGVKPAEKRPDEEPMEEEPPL

Compound: CCC(CC)CN(CC)Cc1c(C)nc2cc(/C=C/C(=O)NO)ccn12
IC50 [3]: 10 nM

Compound: CCCCc1nc2cc(/C=C/C(=O)NO)ccn2c1CN(CC)CCCC
IC50 [3]: 60 nM

Compound: CN(Cc1c(C(C)(C)C)nc2cc(/C=C/C(=O)NO)ccn12)CC(C)(C)C
IC50 [3]: 780 nM

Compound: O=C(CCCCC[C@@H]1NC(=O)[C@H]2CCCN2C(=O)[C@@H]2CCCCCCCCCCC[C@@H](NC1=O)C(=O)N2)NO
IC50 [8]: 280 nM

Compound: COc1ccc2c(c1)[nH]c1c(C)nccc12 [HARMINE]
IC50 [12]: > 10000 nM

Compound: CC(C)CCc1c(OCCOc2ccc(/C=C/C(=O)NO)cc2)ccc2c1OC(=O)CC2
IC50 [1]: 83.2 nM
IC50 [2]: 55.6 nM

Compound: O=C1N[C@@H]2CCCCCCCCCCC[C@H](NC2=O)C(=O)N2CCC[C@@H]2C(=O)N[C@H]1CCCCCB(O)O
IC50 [13]: 12000 nM
IC50 [14]: 9400 nM
IC50 [8]: > 100000 nM

Compound: CC(C)CCc1c(OCCOc2cccc(/C=C/C(=O)NO)c2)ccc2c1OC(=O)CC2
IC50 [1]: 66.8 nM
IC50 [2]: 6.31 nM

Compound: CC(C)CCc1c(OCCCOc2cccc(/C=C/C(=O)NO)c2)ccc2c1OC(=O)CC2
IC50 [1]: 64.7 nM
IC50 [2]: 12.1 nM

Compound: COc1cc(/C=C/C(=O)NO)ccc1OCCN(C)C(=O)c1ccccc1O
IC50 [15]: 240 nM
IC50 [16]: 380 nM
IC50 [9]: 430 nM

Compound: COCC(=O)CCCCC[C@@H]1NC(=O)[C@H]2CCCN2C(=O)[C@@H]2CCCCCCCCCCC[C@@H](NC1=O)C(=O)N2
IC50 [13]: 27 nM
IC50 [14]: 26 nM
IC50 [8]: > 100000 nM

Compound: CCCCNCc1c(CCCC)nc2cc(/C=C/C(=O)NO)ccn12
IC50 [3]: 20 nM

Continued, values first:

IC50 [1]: 204 nM
IC50 [2]: 82.6 nM
Compound: CC(C)CCc1c(OCCCCOc2ccc(/C=C/C(=O)NO)cc2)ccc2c1OC(=O)CC2

histone acetylation relative to SAHA [4]: 53%
IC50 [5]: 3550 nM
IC50 [6]: 4340 nM
IC50 [7]: 3300 nM
Compound: O=C(CCCCCCn1cc(-c2ccc(Oc3ccccc3)cc2)nn1)NO

histone acetylation relative to SAHA [4]: 48%
IC50 [5]: 9370 nM
IC50 [6]: 12500 nM
IC50 [7]: 8350 nM
Compound: O=C(CCCCCn1cc(-c2ccccc2)nn1)NO

IC50 [9]: 3.2 nM
IC50 [10]: 4.9 nM
IC50 [11]: 2 nM
Compound: O=C(NC(CCCCCSSCCO)C(=O)Nc1cccc2cccnc12)OCc1ccccc1 (stereo not drawn)

IC50 [9]: 29 nM
IC50 [10]: 19 nM
IC50 [11]: 18 nM
Compound: COCCOCC(=O)SCCCCCC(NC(=O)OCc1ccccc1)C(=O)Nc1cccc2cccnc12 (stereo not drawn)

IC50 [12]: 92 nM
Compound: COc1ccc(-c2nc(C(=O)N(CCN(C)C)Cc3ccc(C(=O)NO)cc3)cc3c2[nH]c2ccccc23)cc1

IC50 [15]: 220 nM
IC50 [16]: 260 nM
IC50 [9]: 380 nM
Compound: COc1cc(/C=C/C(=O)NO)ccc1OCCCCN(C)C(=O)c1ccccc1O

IC50 [9]: 7.5 nM
IC50 [10]: 8.2 nM
IC50 [11]: 3.4 nM
Compound: O=C(NC(CCCCCSSCCCCCC(NC(=O)OCc1ccccc1)C(=O)Nc1cccc2cccnc12)C(=O)Nc1cccc2cccnc12)OCc1ccccc1 (stereo not drawn)

IC50 [9]: 34 nM
IC50 [10]: 47 nM
IC50 [11]: 18 nM
Compound: CC(=O)SCCCCCC(NC(=O)OCc1ccccc1)C(=O)Nc1cccc2cccnc12 (stereo not drawn)

IC50 [12]: 120 nM
Compound: CCN(CC)CCN(Cc1ccc(C(=O)NO)cc1)C(=O)c1cc2c([nH]c3ccccc32)c(-c2ccc(OC)cc2)n1

histone acetylation relative to SAHA [4]: 85%
IC50 [5]: 1780 nM
IC50 [6]: 2840 nM
IC50 [7]: 1530 nM
Compound: COc1ccc(-c2cn(CCCCCCC(=O)NO)nn2)cc1

IC50 [15]: 370 nM
IC50 [16]: 680 nM
IC50 [9]: 550 nM
Compound: COc1cc(/C=C/C(=O)NO)ccc1OCCCNC(=O)c1ccccc1O

histone acetylation relative to SAHA [4]: 108%
IC50 [5]: 1390 nM
IC50 [6]: 1980 nM
IC50 [7]: 1210 nM
Compound: O=C(CCCCCCn1cc(-c2ccccc2)nn1)NO

IC50 [12]: 260 nM
Compound: CCCN(Cc1ccc(C(=O)NO)cc1)C(=O)c1cc2c([nH]c3ccccc32)c(-c2ccc(OC)cc2)n1

IC50 [15]: 180 nM
IC50 [16]: 290 nM
IC50 [9]: 350 nM
Compound: COc1cc(/C=C/C(=O)NO)ccc1OCCCN(C)C(=O)c1ccccc1O

From ChEMBL document CHEMBL4422610, “HDAC as onco target: Reviewing the synthetic approaches with SAR study of their inhibitors” (Eur J Med Chem, 2018)
